Test results as given in PubChem BioAssay AID1259411 (Chemical Carcinogenesis Research Information System (CCRIS), 2018).
Calls of active or inactive are those of the source. The rule behind the calls is not given here.

Test system: rodent carcinogenicity bioassays, tumor incidence
Experiment: CCRIS carcinogenicity studies
Conditions: Route: ORAL
In short: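 NCI-built, expert-reviewed records of carcinogenicity and related test outcomes (mutagenicity, tumor promotion/inhibition) compiled from published and report sources, historical span 1985-2011, not updated.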

Measured: carcinogen call

O=NN1CCCCCC1
active: Species: MOUSE, Strain/Sex: NZB/FEMALE, Dose: 0, 1.56 NMOL IN DRINKING WATER 5D/WK FOR 8 WK FOR A TOTAL DOSE OF 0, 6.4 MILLIMOLAR/KG (STUDY DURATION: 400-600 D), Dose: 0, 1.56 NMOL IN DRINKING WATER 5D/WK FOR 8 WK FOR A TOTAL DOSE OF 0, 6.4 MILLIMOLAR/KG (STUDY DURATION: 400-600 D), Tumor Site: Type of Lesion: OROPHARYNX: PAPILLOMA OR CARCINOMA, ESOPHAGUS: PAPILLOMA OR CARCINOMA, STOMACH: SQUAMOUS CELL CARCINOMA, LIVER: HEPATOCE, Tumor Site: Type of Lesion: OROPHARYNX: PAPILLOMA OR CARCINOMA, ESOPHAGUS: PAPILLOMA OR CARCINOMA, STOMACH: SQUAMOUS CELL CARCINOMA, LIVER: HEPATOCE active; positive | Species: MOUSE, Strain/Sex: NZB/MALE, Dose: 0, 1.56 NMOL IN DRINKING WATER 5D/WK FOR 8 WK FOR A TOTAL DOSE OF 0, 5.4 MILLIMOLAR/KG (STUDY DURATION: 400-600 D), Dose: 0, 1.56 NMOL IN DRINKING WATER 5D/WK FOR 8 WK FOR A TOTAL DOSE OF 0, 5.4 MILLIMOLAR/KG (STUDY DURATION: 400-600 D), Tumor Site: Type of Lesion: ESOPHAGUS: PAPILLOMA OR CARCINOMA, STOMACH: SQUAMOUS CELL CARCINOMA, LIVER: HEPATOCELLULAR TUMOR, LUNG: ALVEOLAR ADENOMA, Tumor Site: Type of Lesion: ESOPHAGUS: PAPILLOMA OR CARCINOMA, STOMACH: SQUAMOUS CELL CARCINOMA, LIVER: HEPATOCELLULAR TUMOR, LUNG: ALVEOLAR ADENOMA active; positive | Species: MOUSE, Strain/Sex: NZC/FEMALE, Dose: 0, 1.56 NMOL IN DRINKING WATER 5D/WK FOR 8 WK FOR A TOTAL DOSE OF 0, 5.3 MILLIMOLAR/KG (STUDY DURATION: 600-800 D), Dose: 0, 1.56 NMOL IN DRINKING WATER 5D/WK FOR 8 WK FOR A TOTAL DOSE OF 0, 5.3 MILLIMOLAR/KG (STUDY DURATION: 600-800 D), Tumor Site: Type of Lesion: ESOPHAGUS: CARCINOMA OR PAPILLOMA, STOMACH: SQUAMOUS CELL CARCINOMA, LIVER: HEPATOCELLULAR TUMOR, Tumor Site: Type of Lesion: ESOPHAGUS: CARCINOMA OR PAPILLOMA, STOMACH: SQUAMOUS CELL CARCINOMA, LIVER: HEPATOCELLULAR TUMOR active; positive | Species: MOUSE, Strain/Sex: NZC/MALE, Dose: 0, 1.56 NMOL IN DRINKING WATER 5D/WK FOR 8 WK FOR A TOTAL DOSE OF 0, 6 MILLIMOLAR/KG (STUDY DURATION: 600-800 D), Dose: 0, 1.56 NMOL IN DRINKING WATER 5D/WK FOR 8 WK FOR A TOTAL DOSE OF 0, 6 MILLIMOLAR/KG (STUDY DURATION: 600-800 D), Tumor Site: Type of Lesion: OROPHARYNX: PAPILLOMA OR CARCINOMA, ESOPHAGUS: PAPILLOMA OR CARCINOMA, STOMACH: SQUAMOUS CELL CARCINOMA, LIVER: HEPATOCE, Tumor Site: Type of Lesion: OROPHARYNX: PAPILLOMA OR CARCINOMA, ESOPHAGUS: PAPILLOMA OR CARCINOMA, STOMACH: SQUAMOUS CELL CARCINOMA, LIVER: HEPATOCE active; positive | Species: MOUSE, Strain/Sex: NZO/FEMALE, Dose: 0, 1.56 NMOL IN DRINKING WATER 5D/WK FOR 8 WK FOR A TOTAL DOSE OF 0: 6.3 MILLIMOLAR/KG (STUDY DURATION: 600-800 D), Tumor Site: Type of Lesion: OROPHARYNX: PAPILLOMA OR CARCINOMA, ESOPHAGUS: PAPILLOMA OR CARCINOMA, STOMACH: SQUAMOUS CELL CARCINOMA, LIVER: HEPATOCE, Tumor Site: Type of Lesion: OROPHARYNX: PAPILLOMA OR CARCINOMA, ESOPHAGUS: PAPILLOMA OR CARCINOMA, STOMACH: SQUAMOUS CELL CARCINOMA, LIVER: HEPATOCE active; positive | Species: MOUSE, Strain/Sex: NZO/FEMALE, Dose: 0, 50 MG/L IN DRINKING WATER 5 D/WK FOR 32 WK (TOTAL DOSE: 52 MG) (STUDY DURATION: 1.5 YR), Tumor Site: Type of Lesion: OROPHARYNX: SQUAMOUS CELL CARCINOMA, SQUAMOUS CELL ADENOMA, STOMACH: SQUAMOUS CELL CARCINOMA, SQUAMOUS CELL ADENOMA, ESO, Tumor Site: Type of Lesion: OROPHARYNX: SQUAMOUS CELL CARCINOMA, SQUAMOUS CELL ADENOMA, STOMACH: SQUAMOUS CELL CARCINOMA, SQUAMOUS CELL ADENOMA, ESO active; positive | Species: MOUSE, Strain/Sex: NZO/FEMALE, Dose: 0, 200 MG/L IN DRINKING WATER 5 D/WK FOR 8 WK (TOTAL DOSE: 52 MG) (STUDY DURATION: 2 YR), Tumor Site: Type of Lesion: OROPHARYNX: SQUAMOUS CELL CARCINOMA, SQUAMOUS CELL ADENOMA, STOMACH: SQUAMOUS CELL CARCINOMA, SQUAMOUS CELL ADENOMA, ESO, Tumor Site: Type of Lesion: OROPHARYNX: SQUAMOUS CELL CARCINOMA, SQUAMOUS CELL ADENOMA, STOMACH: SQUAMOUS CELL CARCINOMA, SQUAMOUS CELL ADENOMA, ESO active; positive | Species: MOUSE, Strain/Sex: NZO/MALE, Dose: 0, 1.56 NMOL IN DRINKING WATER 5D/WK FOR 8 WK FOR A TOTAL DOSE OF 0, 6.1 MILLIMOLAR/KG (STUDY DURATION: 600-800 D), Dose: 0, 1.56 NMOL IN DRINKING WATER 5D/WK FOR 8 WK FOR A TOTAL DOSE OF 0, 6.1 MILLIMOLAR/KG (STUDY DURATION: 600-800 D), Tumor Site: Type of Lesion: OROPHARYNX: PAPILLOMA OR CARCINOMA, ESOPHAGUS: PAPILLOMA OR CARCINOMA, STOMACH: SQUAMOUS CELL CARCINOMA, LIVER: HEPATOCE, Tumor Site: Type of Lesion: OROPHARYNX: PAPILLOMA OR CARCINOMA, ESOPHAGUS: PAPILLOMA OR CARCINOMA, STOMACH: SQUAMOUS CELL CARCINOMA, LIVER: HEPATOCE active; positive | Species: MOUSE, Strain/Sex: NZO/MALE, Dose: 0, 50 MG/L IN DRINKING WATER 5 D/WK FOR 52 WK (TOTAL DOSE: 52 MG) (STUDY DURATION: 1.5 YR), Tumor Site: Type of Lesion: OROPHARYNX: SQUAMOUS CELL CARCINOMA, SQUAMOUS CELL ADENOMA, STOMACH: SQUAMOUS CELL CARCINOMA, SQUAMOUS CELL ADENOMA, ESO, Tumor Site: Type of Lesion: OROPHARYNX: SQUAMOUS CELL CARCINOMA, SQUAMOUS CELL ADENOMA, STOMACH: SQUAMOUS CELL CARCINOMA, SQUAMOUS CELL ADENOMA, ESO active; positive | Species: MOUSE, Strain/Sex: NZO/MALE, Dose: 0, 200 MG/L IN DRINKING WATER 5 D/WK FOR 8 WK (TOTAL DOSE: 52 MG) (STUDY DURATION: 2 YR), Tumor Site: Type of Lesion: OROPHARYNX: SQUAMOUS CELL CARCINOMA, SQUAMOUS CELL ADENOMA, STOMACH: SQUAMOUS CELL CARCINOMA, SQUAMOUS CELL ADENOMA, ESO, Tumor Site: Type of Lesion: OROPHARYNX: SQUAMOUS CELL CARCINOMA, SQUAMOUS CELL ADENOMA, STOMACH: SQUAMOUS CELL CARCINOMA, SQUAMOUS CELL ADENOMA, ESO active; positive | Species: MOUSE, Strain/Sex: NZY/FEMALE, Dose: 0, 1.56 NMOL IN DRINKING WATER 5D/WK FOR 8 WK FOR A TOTAL DOSE OF 0, 5.2 MILLIMOLAR/KG (STUDY DURATION: 600-800 D), Dose: 0, 1.56 NMOL IN DRINKING WATER 5D/WK FOR 8 WK FOR A TOTAL DOSE OF 0, 5.2 MILLIMOLAR/KG (STUDY DURATION: 600-800 D), Tumor Site: Type of Lesion: ESOPHAGUS: PAPILLOMA OR CARCINOMA, STOMACH: SQUAMOUS CELL CARCINOMA active; positive | Species: MOUSE, Strain/Sex: NZY/MALE, Dose: 0, 1.56 NMOL IN DRINKING WATER 5D/WK FOR 8 WK FOR A TOTAL DOSE OF 0, 5.4 MILLIMOLAR/KG (STUDY DURATION: 600-800 D), Dose: 0, 1.56 NMOL IN DRINKING WATER 5D/WK FOR 8 WK FOR A TOTAL DOSE OF 0, 5.4 MILLIMOLAR/KG (STUDY DURATION: 600-800 D), Tumor Site: Type of Lesion: ESOPHAGUS: PAPILLOMA OR CARCINOMA, STOMACH: SQUAMOUS CELL CARCINOMA, LIVER: HEPATOCELLULAR TUMOR, Tumor Site: Type of Lesion: ESOPHAGUS: PAPILLOMA OR CARCINOMA, STOMACH: SQUAMOUS CELL CARCINOMA, LIVER: HEPATOCELLULAR TUMOR active; positive | Species: RAT, Strain/Sex: F344/FEMALE, Dose: 0.9 MM (112 MG/L) IN DRINKING WATER 5/WK FOR 28 WK, Tumor Site: Type of Lesion: LIVER: CARCINOMA, SARCOMA, ESOPHAGUS: PAPILLOMA, CARCINOMA active; positive
